Patent publication US20100216761A1, “NOVEL AZETIDINONES USEFUL AS INHIBITORS OF ELASTASE” (priority 2007, published 2010)

Key:
[1] = biological target: CYP3A4 (Homo sapiens, UniProt P08684); assay: CYP-P450 reversible inhibition, 3A4; format: in vitro ADME; parameters: host or cells: human liver microsomes or recombinant P450 microsomes; settings: probe fluorogenic probe (not named); human liver microsomes or recombinant P450 microsomes; fluorescent probe
Method: (§1) This assay measured the reversible inhibition of the test compounds against three cytochrome P450 isozymes (CYP-P450 3A4, 2C9 and 2D6) in an automated screening formate. […] Cumene hydroperoxide, NADPH or NADPH regenerating systems can be used as electron donors for the P450 catalytic cycle. Control incubations containing no inhibitor or no fluorescent probe were performed to evaluate the 100% and 0% activities, respectively. The activity of P450 enzyme was evaluated in the presence of 0.137, 0.273, 0.547, 1.094, 2.188, 4.375, 8.750, 17.5, 35.0 and 70.0 μM concentrations of the test compounds. Inhibition curves were generated and IC50 values were calculated for each tested compound using standard techniques.

[2] = biological target: T1, Human Leukocyte Elastase (HLE) (Homo sapiens, UniProt P08246); assay: HLE time-dependent inactivation assay, purified elastase; format: biochemical; settings: purified elastase 3 nM; inhibitor 26.5 nM; substrate 1 mM
T1 construct: The PMN lysates were prepared by isolating human neutrophils from whole blood; from tissue; host or cells: human neutrophils (PMN) isolated from whole blood, lysed by sonication in PBS
T1 sequence (P08246 30-267): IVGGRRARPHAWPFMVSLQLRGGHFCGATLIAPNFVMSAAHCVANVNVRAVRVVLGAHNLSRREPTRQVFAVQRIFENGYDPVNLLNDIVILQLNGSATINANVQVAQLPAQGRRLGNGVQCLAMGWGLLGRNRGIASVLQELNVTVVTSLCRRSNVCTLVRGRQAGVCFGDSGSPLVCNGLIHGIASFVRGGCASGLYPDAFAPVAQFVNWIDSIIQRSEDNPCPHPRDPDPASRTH
Method: (§2) As exemplified in Table 1, the Examples 1-6 of this application were determined to be potent, mechanism-based inactivators of Human Leukocyte Elastase (HLE) in two different in vitro time-dependent incubation assays. The two assays are described at the end of this Biological Data Section in Note 1. See the literature references in Note 2 for a discussion of the mechanism for this type of beta-lactam inactivation of HLE. Two sources of enzyme were used; either purified elastase or crude extracts of human polymorphonuclear leukocytes (PMN) containing elastase activity. […] For the compound of Example 1, the results were 638,000 M^−1 sec^−1 (average of n=3) and 809,000 M^−1 sec^−1 (n=4), respectively, and for Example 3, 804,000 M^−1 sec^−1 (average of n=4) and 952,000 M^−1 sec^−1 (n=5). […] Note that in this assay, head-to-head comparisons are particularly valuable.
(§3) Note 1: Enzyme Assays for the Inhibition of Human Polymorphonuclear Leukocyte Elastase Via Hydrolysis of N-Methyoxysuccinyl-alanyl-alanyl-prolylalanine-p-nitroanilide Reagent.
(§4) Prepare substrate by first dissolving in DMSO to 30 mg/ml (50 mM). Further dilute the substrate to 10 mM and add 25 μl to a final volume of 250 μl for a final concentration of 1 mM in the assay.
(§5) Prepare the enzyme in TES Buffer (0.045M TES (N-tris[hydroxymethyl]methyl-2-mino-ethanesulfonic acid), 0.45 M NaCl, pH 7.5.). Two sources of enzyme were used; either crude extracts of human polymorphonuclear leukocytes (PMN) containing elastase activity or purified elastase. The PMN lysates were prepared by isolating human neutrophils from whole blood after dextran sedimentation, ficoll density separation and red blood cell lysis. The neutrophils were lysed in PBS with sonciation and the concentration of active enzyme was determined by utilizing a standard curve of purified enzyme. For the purified elastase, the enzyme was resuspended at 10 mg/ml (˜340 μM) in 0.02M NaOAc, 50% glycerol. For both the PMN lysate and purified enzyme, a further dilution of enzyme was made to 30 nM and 25 μl was added to a final volume of 250 μl. The final concentration of enzyme in the assay was 3 nM.
(§6) The inhibitors to be tested were dissolved in DMSO at 10 mM. Directly before use, the inhibitors were further diluted into TES Buffer to 265 nM and […] was added to a final volume of 250 μl. The final concentration of inhibitor in the assay was 26.5 nM.
(§7) In a 96-well plate (flat bottom, polystyrene) 175 μl TES Buffer, 25 μl substrate, 25 μl inhibitor and 25 μl enzyme were added. After thoroughly mixing, the plate was then read in a spectrophotometer at 410 nm for 30 minutes counting every 10 seconds. Results were expressed as Kinact/Ki which is the second order rate constant in per mole per second for inactivation of the enzyme.

[3] = Liver microsome stability in 4 species: human; format: in vitro ADME; settings: substrate 0.5 uM, microsome 0.25 mg/mL
Method: (§8) In a separate experiment as exemplified in Table 3, the stability of the current Example 1 and the comparator Compound #290 in incubations with microsome preparations from 4 different species were also determined (Note 5).
(§9) X. S. Tong, et. al., J. of Chromatography, 2006, 833, 165.

[4] = Liver microsome stability in 4 species: dog; format: in vitro ADME; settings: substrate 0.5 uM, microsome 0.25 mg/mL
Method: as §8, §9

[5] = biological target: T2, CYP2C9 (Homo sapiens, UniProt P11712); assay: CYP-P450 reversible inhibition, 2C9; format: in vitro ADME; settings: probe fluorogenic probe (not named); human liver microsomes or recombinant P450 microsomes; fluorescent probe
T2 construct: host or cells: human liver microsomes or recombinant P450 microsomes
Method: as §1

[6] = biological target: T3, CYP2D6 (Homo sapiens, UniProt P10635); assay: CYP-P450 reversible inhibition, 2D6; format: in vitro ADME; settings: probe fluorogenic probe (not named); human liver microsomes or recombinant P450 microsomes; fluorescent probe
T3 construct: host or cells: human liver microsomes or recombinant P450 microsomes
Method: as §1

[7] = biological target: T1, Human Leukocyte Elastase (HLE); assay: HLE time-dependent inactivation assay, PMN cell lysate source of HLE; format: biochemical; settings: 3 nM, inhibitor 26.5 nM, substrate 1 mM
Method: as §2, §3, §4, §5, §6, §7

T3 sequence (P10635 whole entry): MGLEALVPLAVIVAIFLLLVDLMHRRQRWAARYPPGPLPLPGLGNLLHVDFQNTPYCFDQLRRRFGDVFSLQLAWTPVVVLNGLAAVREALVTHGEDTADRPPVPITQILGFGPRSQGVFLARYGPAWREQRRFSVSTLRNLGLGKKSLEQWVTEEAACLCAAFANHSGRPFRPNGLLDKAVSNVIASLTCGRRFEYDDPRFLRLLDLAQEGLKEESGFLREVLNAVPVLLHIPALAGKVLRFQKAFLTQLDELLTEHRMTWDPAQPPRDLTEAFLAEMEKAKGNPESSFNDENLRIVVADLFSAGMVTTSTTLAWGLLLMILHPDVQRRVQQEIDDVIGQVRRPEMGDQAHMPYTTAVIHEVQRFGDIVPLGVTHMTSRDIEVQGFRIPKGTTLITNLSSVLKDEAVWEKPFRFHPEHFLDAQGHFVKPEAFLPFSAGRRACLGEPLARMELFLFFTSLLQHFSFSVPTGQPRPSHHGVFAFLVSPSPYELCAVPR
Chain of CYP3A4 (P08684 whole entry): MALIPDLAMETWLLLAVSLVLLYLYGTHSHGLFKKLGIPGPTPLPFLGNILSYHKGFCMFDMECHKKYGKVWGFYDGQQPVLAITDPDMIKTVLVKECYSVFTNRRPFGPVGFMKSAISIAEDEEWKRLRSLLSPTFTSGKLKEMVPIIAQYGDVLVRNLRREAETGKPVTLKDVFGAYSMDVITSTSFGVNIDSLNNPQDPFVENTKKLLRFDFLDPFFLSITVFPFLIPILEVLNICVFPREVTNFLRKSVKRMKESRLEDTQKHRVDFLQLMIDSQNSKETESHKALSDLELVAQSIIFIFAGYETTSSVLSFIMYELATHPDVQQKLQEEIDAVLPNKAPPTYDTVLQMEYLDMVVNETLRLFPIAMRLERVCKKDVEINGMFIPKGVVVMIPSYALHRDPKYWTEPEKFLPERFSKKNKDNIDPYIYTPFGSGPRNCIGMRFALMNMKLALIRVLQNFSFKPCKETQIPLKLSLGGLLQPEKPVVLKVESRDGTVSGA
T2 sequence (P11712 whole entry): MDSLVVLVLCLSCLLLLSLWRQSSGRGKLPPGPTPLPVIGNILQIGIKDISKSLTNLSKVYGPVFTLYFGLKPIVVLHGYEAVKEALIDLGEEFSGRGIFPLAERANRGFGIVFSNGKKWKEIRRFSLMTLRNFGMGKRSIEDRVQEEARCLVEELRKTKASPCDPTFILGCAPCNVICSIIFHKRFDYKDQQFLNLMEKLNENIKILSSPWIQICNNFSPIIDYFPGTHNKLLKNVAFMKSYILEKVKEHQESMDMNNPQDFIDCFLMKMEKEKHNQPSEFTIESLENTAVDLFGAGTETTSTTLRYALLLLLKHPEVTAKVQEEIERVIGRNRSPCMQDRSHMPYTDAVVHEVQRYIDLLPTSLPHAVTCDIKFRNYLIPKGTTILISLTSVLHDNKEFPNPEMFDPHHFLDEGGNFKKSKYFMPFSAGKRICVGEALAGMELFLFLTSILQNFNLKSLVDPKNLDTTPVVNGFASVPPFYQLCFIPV

SMILES	IC50 [1]	kinact/KI [2]	% Left @ 30 min [3]	% Left @ 60 min [3]	% Left @ 30 min [4]	% Left @ 60 min [4]	IC50 [5]	IC50 [6]	kinact/KI [7]
CCC[C@@H](NC(=O)N1C(=O)C(CC)(CC)[C@@H]1Oc1ccc(C(=O)N(C)CCN(C)C)cc1)c1ccc(OC)cc1 [Compound #290, reference compound]	> 8 µM	523000 M⁻¹ s⁻¹	93%	88%	100%	102%	> 8 µM	> 8 µM	–
CCC[C@@H](NC(=O)N1C(=O)C(CC)(CC)[C@@H]1Oc1ccc(C(=O)N(CC)CCN(C)C)cc1)c1ccc(OC(F)(F)F)cc1 [Example 1, 2-(S)-[4-(((2-(Dimethylamino)ethyl)ethylamino)carbonyl)phenoxy]-3,3-diethyl-N-[1-(R)-(4-(trifluoromethoxy)phenyl)butyl]-4-oxo-1-azetidinecarboxamide]	> 8 µM	638000 M⁻¹ s⁻¹	92%	92%	93%	86%	> 8 µM	> 8 µM	809000 M⁻¹ s⁻¹
CCC[C@@H](NC(=O)N1C(=O)C(CC)(CC)[C@@H]1Oc1ccc(C(=O)N(CC)CCN(C)C)cc1)c1ccc(C(F)(F)F)cc1 [Example 3, 2-(S)-[4-(((2-(Dimethylamino)ethyl)ethylamino)carbonyl)phenoxy]-3,3-diethyl-N-[1-(R)-(4-(trifluoromethyl)phenyl)butyl]-4-oxo-1-azetidinecarboxamide]	–	804000 M⁻¹ s⁻¹	–	–	–	–	–	–	952000 M⁻¹ s⁻¹
